According to patent US12491185B2, “Inhibitors of mPTP” (NRG Therapeutics Ltd, priority 2023, dated 2025):

Legend:
[1] = system: mPTP; assay: mPTP activity (Ca2+ retention) assay in isolated rat liver mitochondria; format: biochemical; settings: examples tested by different contract research organisations, believed comparable
How it was run: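 pIC50 was taken from Fluo5N fluorescence at 10 min after a 75 μM CaCl2 bolus, scaled between DMSO (0%) and 5 μM cyclosporin A (100%). Compounds, ten half-log concentrations from 30 μM to 1 nM final, sat 10 min at RT with fresh female Sprague Dawley rat liver mitochondria energized by succinate plus rotenone.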

[2] = system: mPTP; assay: mPTP activity assay in isolated rat brain mitochondria; format: biochemical; settings: fluorescence at 10 min timepoint
Protocol: MPTP activity was measured in brain mitochondria freshly isolated from female Sprague Dawley (250 to 300 gram) rats. Anaesthetised rats were perfused in-situ with −40 ml cold Dulbecco's Phosphate Buffered Saline (DPBS), then brains dissected and transferred into 30 ml Isolation Buffer (225 mM mannitol, 75 mM sucrose, 1 mM EGTA, adjusted to pH 7.4 with 1M NaOH). The brain was minced using tweezers and a scalpel into −5 mm pieces then transferred into a 50 ml Potterton Dounce homogenization tube on ice containing 10 ml ice-cold isolation buffer (as above with addition of Complete Protease inhibitor; 1 tablet per 50 ml buffer). Homogenisation was carried out using a teflon pestle at 1800 rpm. The slurry was centrifuged at 2000 g for 10 min at 4° C., then the supernatant centrifuged at 12,000 g for 9 min. The pellet was resuspended with a dounce homogeniser in isolation buffer as above but with the addition of 0.02% digitonin, centrifuged at 12,000 g for 11 min and finally resuspended in 5 ml modified isolation buffer (as above but with EGTA reduced to 0.1 mM).
Test compounds were prepared in 384 well polypropylene assay plates as described above for the liver mitochondria assay. A stock mitochondria/Fluo5N assay solution was prepared in 5.6 ml assay buffer (120 mM mannitol, 40 mM MOPS, 5 mM KH2PO4, 60 mM KCl, 10 mM pyruvate, 2 mM malate, 2 mM MgCl2, 20 μM ADP, 1.26 μM oligomycin A, adjusted to pH 7.4) supplemented with Fluo5N pentapotassium salt (2 μM) and 1 ml mitochondria suspension, then transferred (15 μl) into the assay plate containing test compounds and incubated for 10 min at RT. Assay plates were then transferred to a FLIPR Tetra plate reader (Molecular Devices). Dye fluorescence was then measured every 3 sec for a total of 10 min.

| Structure (SMILES) | mPTP Rat liver pIC50 [1] | mPTP Rat brain pIC50 [2] |
| --- | --- | --- |
| O=C(NCC1(Cc2ccc(F)cc2F)CCC1)c1ccc(=O)[nH]n1 [Example 175] | 5.92 | 6.81 |
| Cn1nc(C(=O)NCC2(Cc3ccccc3)CC2)[nH]c1=O [Example 33, N-((1-benzylcyclopropyl)methyl)-1-methyl-5-oxo-4,5-dihydro-1H-1,2,4-triazole-3-carboxamide] | 5.63 | 6.51 |
| Cn1nc(C(=O)NCC2(Cc3ccc(F)cc3F)CCCO2)[nH]c1=O (single isomer, unassigned) [Example 229] | 6.32 | 6.83 |
| CC(c1ccc(F)cc1F)C1(CNC(=O)c2nn(C)c(=O)[nH]2)CCC1 (centres unmarked) [Example 52, N-((1-(1-(2,4-difluorophenyl)ethyl)cyclobutyl)methyl)-1-methyl-5-oxo-4,5-dihydro-1H-1,2,4-triazole-3-carboxamide] | 6.41 | 7.64 |
| Cn1nc(C(=O)NCC2(Cc3cc(F)cc(F)c3)CCC2)[nH]c1=O [Example 116, N-((1-(3,5-difluorobenzyl)cyclobutyl)methyl)-1-methyl-5-oxo-4,5-dihydro-1H-1,2,4-triazole-3-carboxamide] | 6.04 | 6.45 |
| O=C(NCC1(Cc2ccc(F)c(F)c2)CCC1)c1nccc(=O)[nH]1 [Example 133] | 6.51 | 7.5 |
| CC(c1ccccc1)C1(CNC(=O)c2nn(C)c(=O)[nH]2)CCC1 (centres unmarked) [Example 25, 1-methyl-5-oxo-N-((1-(1-phenylethyl)cyclobutyl)methyl)-4,5-dihydro-1H-1,2,4-triazole-3-carboxamide] | 6.42 | 7.37 |
| Cn1nc(C(=O)NCC2(Cc3ccc(F)cc3F)CCCC2)[nH]c1=O [Example 92, N-((1-(2,4-Difluorobenzyl)cyclopentyl)methyl)-1-methyl-5-oxo-4,5-dihydro-1H-1,2,4-triazole-3-carboxamide] | 6.31 | 7.54 |
| CCC(CNC(=O)c1nn(C)c(=O)[nH]1)Cc1cccs1 (centres unmarked) [Example 80, 1-Methyl-5-oxo-N-(2-(thiophen-2-ylmethyl)butyl)-4,5-dihydro-1H-1,2,4-triazole-3-carboxamide] | 5.77 | 6.29 |
| CCC(CNC(=O)c1nn(C)c(=O)[nH]1)Cc1ccccc1 (centres unmarked) [Example 40, N-(2-benzylbutyl)-1-methyl-5-oxo-4,5-dihydro-1H-1,2,4-triazole-3-carboxamide] | 6.29 | 7.50 |
| O=C(NCC1(Cc2cccc(F)c2)CCC1)c1cncc(O)n1 [Example 49, N-((1-(3-fluorobenzyl)cyclobutyl)methyl)-6-hydroxypyrazine-2-carboxamide] | 4.56 | 7.44 |
| CC(c1ccc(F)cc1F)[C@@H](CNC(=O)c1nccc(=O)[nH]1)C1CC1 (single isomer, unassigned) [Example 226] | 4.52 | 4.82 |
| Cn1nc(C(=O)NCC2(Cc3ccccc3Cl)CCC2)[nH]c1=O [Example 30, N-((1-(2-chlorobenzyl)cyclobutyl)methyl)-1-methyl-5-oxo-4,5-dihydro-1H-1,2,4-triazole-3-carboxamide] | 6.20 | 7.63 |
| Cn1nc(C(=O)NCC2(Cc3cc(F)ccc3F)CCC2)[nH]c1=O [Example 81, N-((1-(2,5-Difluorobenzyl)cyclobutyl)methyl)-1-methyl-5-oxo-4,5-dihydro-1H-1,2,4-triazole-3-carboxamide] | 6.85 | 6.51 |
| Cn1nc(C(=O)NC[C@@H](Cc2ccc(F)cc2Cl)C2CC2)[nH]c1=O [Example 242] | 4.95 | 5.39 |
| CC(CNC(=O)c1nccc(=O)[nH]1)(Cc1ccc(F)cc1)C1CC1 (single isomer, unassigned) [Example 251] | 6.21 | 7.06 |
